Measurements: patent publication US20190282616A1, “MACROPHAGES REDIRECT PHAGOCYTOSIS BY NON-PROFESSIONAL PHAGOCYTES AND INFLUENCE INFLAMMATION” (University of Virginia Patent Foundation, priority 2016, published 2019)

Legend:
[1] = tested on: bone marrow derived macrophages; test: Apoptotic cell engulfment by bone marrow derived macrophages; type: cell-based, mouse; conditions: even with supra-physiological concentrations of IGF-1
Description: To obtain bone-marrow derived macrophages, femurs were removed from 8 week old mice and flushed with 5 mL of sterile PBS containing 5% FBS. The cell suspension was centrifuged, treated with red blood cell lysis buffer, washed, and then plated onto sterile petri dishes in DMEM containing 10% L929 media, 10% FBS and 1% penicillin/streptomycin/glutamine (PSQ). Media was replenished every 2 to 3 days and differentiated cells were used at day 6 post-harvest. Resident peritoneal macrophages were obtained by flushing the peritoneal cavity of mice with 10 mL of cold PBS containing 5% FBS. Collected cells were spun down, resuspended in X-VIVO 10 (Lonza) and plated at a concentration of 3×10^5 cells per well in a 24 well plate for IGF-1 secretion assays, and 5×10^5 per well in a 24 well plate for engulfment assays. Floating cells were washed the next day and remaining peritoneal macrophages were used 2 days after isolation. Alveolar macrophages were isolated by flushing the lungs with 1 mL of cold PBS instilled intratracheally (five flushes). Collected cells were centrifuged, resuspended in F12K media containing 10% FBS and 1% PSQ, and seeded at 1×10^5 cells per well in a 48-well plate. All floating cells were washed away the next day and remaining cells were used in assays 2 days after isolation.

[2] = tested on: IGF-1R, Akt and Erk1/2 phosphorylation in LR73 cells; test: Immunoblotting of signaling in LR73 cells; type: cell-based, hamster; conditions: LR73 cells, IGF-1 treatment
Description: LR73, J774, or BEAS-2B cells were seeded in a 60 mm dish at a concentration of 5×10^5. […] Cells were lysed in RIPA buffer and used in Western blots. The blots were probed for phospho-Erk1/2 (Cell Signaling Technology, #4370), phospho-Akt (Cell Signaling Technology, #4060), phospho-IGF-1R (Cell Signaling, #3024), total Erk2 (Santa Cruz Biotechnology, #sc-154-G), total Akt (Cell Signaling Technology, #4691), total IGF-1R (Cell Signaling, #9750), and anti-B-actin-HRP (Sigma-Aldrich, #A3854) followed by chemiluminescence detection.

[3] = tested on: IGF-1R and Akt phosphorylation in macrophages; test: Immunoblotting of IGF-1R and Akt phosphorylation in macrophages; type: cell-based; conditions: 100 ng/mL mouse IGF-1
Description: LR73, J774, or BEAS-2B cells were seeded in a 60 mm dish at a concentration of 5×10^5. Cells were serum-starved for 6 hours and then stimulated with 100 ng/mL of IGF-1 for various time points. Cells were lysed in RIPA buffer and used in Western blots. The blots were probed for phospho-Erk1/2 (Cell Signaling Technology, #4370), phospho-Akt (Cell Signaling Technology, #4060), phospho-IGF-1R (Cell Signaling, #3024), total Erk2 (Santa Cruz Biotechnology, #sc-154-G), total Akt (Cell Signaling Technology, #4691), total IGF-1R (Cell Signaling, #9750), and anti-B-actin-HRP (Sigma-Aldrich, #A3854) followed by chemiluminescence detection.

LR73 cells [4] = test: In vitro engulfment assay: apoptotic thymocyte uptake by LR73 cells; type: cell-based, hamster
Description: LR73, SVEC-40, BEAS-2B, and 16HBE14o-cells were seeded in a 24 well plate. Thymocytes were isolated from 4-6 week old mice and induced to undergo apoptosis with dexamethasone. Thymocytes or prepared microvesicles were then stained with either CypHer5E (GE Healthcare, PA15401) or TAMRA (Invitrogen, C-1171). LR73 and SVEC-40 cells were incubated with apoptotic thymocytes at a 1:10 phagocyte to target ratio, BEAS-2B at a 1:5 phagocyte to target ratio, and 16HBE14o—at a 1:20 phagocyte to target ratio for 2 hours. Mouse IGF-I (Sigma-Aldrich), human IGF-I (Sigma-Aldrich), human IGF-II (Sigma-Aldrich) were added to the phagocytes at the same time as addition of apoptotic targets. For IGFBP3 studies, IGFBP3 (Sigma-Aldrich) was added to media or supernatant from J774 cells for one hour to allow IGFBP3 to bind to any available IGF-I, then the mix is added to phagocytes along with apoptotic targets. For all pharmacological studies, phagocytes were pre-incubated with the compounds listed below for one hour prior to addition of apoptotic targets: cytochalasin D (Sigma-Aldrich, C8273, 1 μM), Latrunculin A (Tocris, 3973, 150 nM), CK-666 (Tocris, 3950, 25 μM-100 μM), OSI-906 (Selleckchem, S1091, 5 nM-40 nM), NVP-AEW541 (Selleckchem, S1034, 25 nM-100 nM), Rapamycin (Sigma-Aldrich, R0395, […]), MK-2206 2HCl (Selleckchem, S1078, 10 nM-1 U0126-EtOH (Selleckchem, S1102, […]), Wortmannin (Sigma-Aldrich, W1628, 50 nM-200 nM), Y27632 (Calbiochem, 688000, 3.75 μM-15 μM), or GSK269962 (Tocris, 4009, 80 nM-2 μM). […] Targets were then washed off three times with PBS, and the cells were dissociated from the plate with trypsin and the engulfment assessed by flow cytometry.

BEAS-2B cells = test: Uptake of alveolar macrophage derived microvesicles by BEAS-2B cells; type: cell-based, human; conditions: IGF-1 100 ng/mL
Description: MH-S, mouse alveolar macrophages, or primary mouse alveolar macrophages were seeded. After adherence, the media was replaced with 0.22 μm filtered media to remove any contaminating microvesicles. After an overnight incubation, the supernatant was harvested and spun at 5000×g to remove cell debris and apoptotic bodies. The pellet was discarded and the resulting supernatant was filtered through 0.8 μm filter and spun again at 17,000×g. The pelleted microvesicles were then washed with HBSS and then spun again at 17,000×g. For engulfment assays, microvesicles were stained with TAMRA for 20 minutes and then added to BEAS-2B cells for 90 minutes. For flow cytometry, purified particles were stained with CD11c, Siglec F, and Annexin V (BD Biosciences, Cat. No. 550475) and processed on Imagestream™ imaging flow cytometer (Amnis). Microvesicle size distribution was characterized using qNano (IZON Science) with a NP400 membrane and at least 500 particles were counted. Microvesicles were prepared for cryo-electron microscopy using standard methods and imaged on an FEI TF20.

LR73 cells [5] = test: In vitro engulfment assay: apoptotic thymocyte uptake by LR73 cells; type: cell-based, hamster; conditions: LR73 cells pretreated with IGF-I, washed
J774 macrophage cells = test: Apoptotic thymocyte phagocytosis by J774 macrophage cells; type: cell-based; conditions: even with supra-physiological concentrations of IGF-1, every time point
[6] = tested on: SVEC-40 endothelial cells; test: In vitro engulfment assay: apoptotic thymocyte uptake by SVEC-40 cells; type: cell-based, mouse; conditions: IGF-1 treatment
Description: LR73, SVEC-40, BEAS-2B, and 16HBE14o-cells were seeded in a 24 well plate. Thymocytes were isolated from 4-6 week old mice and induced to undergo apoptosis with dexamethasone. Thymocytes or prepared microvesicles were then stained with either CypHer5E (GE Healthcare, PA15401) or TAMRA (Invitrogen, C-1171). LR73 and SVEC-40 cells were incubated with apoptotic thymocytes at a 1:10 phagocyte to target ratio, BEAS-2B at a 1:5 phagocyte to target ratio, and 16HBE14o—at a 1:20 phagocyte to target ratio for 2 hours. Mouse IGF-I (Sigma-Aldrich), human IGF-I (Sigma-Aldrich), human IGF-II (Sigma-Aldrich) were added to the phagocytes at the same time as addition of apoptotic targets. For IGFBP3 studies, IGFBP3 (Sigma-Aldrich) was added to media or supernatant from J774 cells for one hour to allow IGFBP3 to bind to any available IGF-I, then the mix is added to phagocytes along with apoptotic targets. […] Targets were then washed off three times with PBS, and the cells were dissociated from the plate with trypsin and the engulfment assessed by flow cytometry.

With insulin-like growth factor I [IGF-1] the “corpse uptake by bone marrow-derived macrophages” value [1] was “did not affect corpse uptake”, the “phosphorylation of Akt” value [2] was “elicited phosphorylation of Akt” and the “early signaling in macrophages (IGF-1R and Akt phosphorylation)” value [3] was “initiated early signaling in macrophages”. The “engulfment with IGF-1 added simultaneously with apoptotic cells” value (LR73 cells [4]; data not shown) was “inhibited engulfment similar to pre-treated cells”, the “apoptotic cell uptake (engulfment) by LR73 cells” value (LR73 cells [4]; soluble mediator alone, IGF-I at concentrations reported in serum (100-600 ng/mL), other factors over a range of concentrations) was “significantly dampened apoptotic cell uptake” and the “apoptotic cell uptake by LR73 cells with macrophage produced IGF-1” value (LR73 cells [4]; supernatant of J774 cells treated with rIL-4 for 24 hrs) was “could also suppress apoptotic cell uptake by LR73 cells”. The “uptake of microvesicles by BEAS-2B airway epithelial cells” value (BEAS-2B cells) was “enhanced by IGF-1”, the “engulfment after washing phagocytes pre-treated with IGF-1 (reversibility)” value (LR73 cells [5]) was “near complete restoration of engulfment” and the “corpse uptake by J774 cells” value (J774 macrophage cells) was “did not affect corpse uptake”. The “apoptotic thymocyte uptake by SVEC-40 cells” value [6] was “engulfment dampening effect of IGF-1 was also seen”.
